Assay results as given in ChEMBL document CHEMBL1649245.
Activity calls are given as the source filed them.

Key:
Mycoplasma capricolum [1] = assay: Antimicrobial activity against wild-type Mycoplasma capricolum at 3.7 ug/ml; type: functional
[2] = test system: Mycoplasmoides gallisepticum; assay: Antimicrobial activity against wild-type Mycoplasma gallisepticum at 1 to 3 ug/ml; type: functional, organism-based
[3] = test system: Mycoplasmoides pneumoniae; assay: Antimicrobial activity against wild-type Mycoplasma pneumoniae at 1 to 3 ug/ml; type: functional, organism-based
Mycoplasma capricolum [4] = assay: Antimicrobial activity against wild-type Mycoplasma capricolum at 1 to 3 ug/ml; type: functional
Mycoplasma genitalium = assay: Antimicrobial activity against wild-type Mycoplasma genitalium at 1 to 3 ug/ml; type: functional; conditions: Mycoplasmoides genitalium
Mycoplasma mycoides = assay: Antimicrobial activity against wild-type Mycoplasma mycoides at 1 to 3 ug/ml; type: functional
Escherichia coli = assay: Antimicrobial activity against Escherichia coli at 10 to 50 ug/ml; type: functional, organism-based

Measured: Activity

COc1ccc(C[C@H](N)C(=O)N[C@H]2[C@@H](O)[C@H](n3cnc4c(N(C)C)ncnc43)O[C@@H]2CO)cc1
active: all assays above
